Here are results for 14 compounds from ChEMBL document CHEMBL1146734, “Estrogen receptor ligands. Part 3: The SAR of dihydrobenzoxathiin SERMs” (Bioorg Med Chem Lett, 2004).

The structures appear in SMILES notation.

The first test deals with T1, Estrogen receptor (Homo sapiens, UniProt P03372).
T1 sequence (P03372 whole entry): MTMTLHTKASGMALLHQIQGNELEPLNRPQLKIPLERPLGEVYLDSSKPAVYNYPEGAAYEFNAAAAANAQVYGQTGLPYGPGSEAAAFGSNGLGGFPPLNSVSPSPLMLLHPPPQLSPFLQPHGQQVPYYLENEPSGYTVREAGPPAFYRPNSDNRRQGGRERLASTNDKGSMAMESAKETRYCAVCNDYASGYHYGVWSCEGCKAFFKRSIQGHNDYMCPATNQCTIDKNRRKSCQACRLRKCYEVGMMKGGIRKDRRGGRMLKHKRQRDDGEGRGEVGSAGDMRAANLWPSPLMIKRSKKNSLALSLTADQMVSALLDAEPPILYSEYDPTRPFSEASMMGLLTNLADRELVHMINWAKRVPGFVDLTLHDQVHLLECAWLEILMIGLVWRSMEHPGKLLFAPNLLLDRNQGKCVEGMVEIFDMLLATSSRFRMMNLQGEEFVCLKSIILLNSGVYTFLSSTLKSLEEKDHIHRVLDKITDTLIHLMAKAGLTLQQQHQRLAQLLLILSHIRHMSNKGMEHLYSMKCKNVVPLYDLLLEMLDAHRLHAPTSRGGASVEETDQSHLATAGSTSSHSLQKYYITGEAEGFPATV
Nature of the test: Binding affinity towards human estrogen receptor alpha.
Conditions: not given
For `Oc1ccc2c(c1)S[C@H](C1CCCCC1)[C@H](c1ccc(OCCN3CCCCC3)cc1)O2`, the IC50 is 2.6 nM.

As to `Oc1ccc2c(c1)S[C@H](c1cccnc1)[C@H](c1ccc(OCCN3CCCCC3)cc1)O2`, the IC50 amounted to 542 nM. Compared with the last compound, the IC50 is about 210-fold higher.

With `Oc1ccc(C[C@H]2Sc3cc(O)ccc3O[C@H]2c2ccc(OCCN3CCCCC3)cc2)cc1`, the IC50 stood at 2.7 nM.

Consider `Oc1ccc2c(c1)S[C@H](CC1CCCCC1)[C@H](c1ccc(OCCN3CCCCC3)cc1)O2`, for which the IC50 came to 3.9 nM.

In the case of `Oc1ccc2c(c1)S[C@H](Cc1ccccc1)[C@H](c1ccc(OCCN3CCCCC3)cc1)O2`, the IC50 was found to be 7.4 nM.

`Oc1ccc2c(c1)S[C@H](CC1CCCC1)[C@H](c1ccc(OCCN3CCCCC3)cc1)O2`: the IC50 turned out to be 3 nM.

`Oc1ccc2c(c1)S[C@H](c1ccncc1)[C@H](c1ccc(OCCN3CCCCC3)cc1)O2` displayed an IC50 of 490 nM.

`CC(C)(C)[C@H]1Sc2cc(O)ccc2O[C@H]1c1ccc(OCCN2CCCCC2)cc1` returned an IC50 of 11 nM. This IC50 is about 45-fold lower than that of the compound before.

Regarding `Oc1ccc2c(c1)S[C@H](C1CCCCCC1)[C@H](c1ccc(OCCN3CCCCC3)cc1)O2`, the IC50 was 7.5 nM.

`CC(C)[C@H]1Sc2cc(O)ccc2O[C@H]1c1ccc(OCCN2CCCCC2)cc1` came in with an IC50 of 7 nM.

The compound `Oc1ccc2c(c1)S[C@H](c1cccs1)[C@H](c1ccc(OCCN3CCCCC3)cc1)O2` had an IC50 of 8.8 nM.

Turning to `Oc1ccc2c(c1)S[C@H](c1ccco1)[C@H](c1ccc(OCCN3CCCCC3)cc1)O2`, the IC50 was 35 nM.

Compound `Oc1ccc2c(c1)S[C@H](C1CCCC1)[C@H](c1ccc(OCCN3CCCCC3)cc1)O2` registered an IC50 of 2.5 nM.

Take `CC(C)C[C@H]1Sc2cc(O)ccc2O[C@H]1c1ccc(OCCN2CCCCC2)cc1`: the IC50 was determined as 3 nM.

The target of the next test is T2, Estrogen receptor (Homo sapiens, UniProt Q92731+P03372). Nature of the test: In vivo inhibition of human ERalpha/ERbeta co-expressed in HEK 293 cells. As to conditions: hek293. It is filed as functional.
In turn, `Oc1ccc(C[C@H]2Sc3cc(O)ccc3O[C@H]2c2ccc(OCCN3CCCCC3)cc2)cc1` displayed an IC50 of 14 nM.

`Oc1ccc2c(c1)S[C@H](Cc1ccccc1)[C@H](c1ccc(OCCN3CCCCC3)cc1)O2` showed an IC50 of 61 nM.

A further test deals with T2, Estrogen receptor. Nature of the test: […] inhibition of human ERalpha/ERbeta co-expressed in HEK 293 cells; 127/3316. Particulars: hek293. The class given is functional.
Take `CC(C)[C@H]1Sc2cc(O)ccc2O[C@H]1c1ccc(OCCN2CCCCC2)cc1`: the IC50 was 127 nM. This counts as sub-micromolar.

In another test the target is T2, Estrogen receptor. In words: […] inhibition of human ERalpha/ERbeta co-expressed in HEK 293 cells; 137/1375. It is filed as functional. Particulars: hek293.
Take `CC(C)(C)[C@H]1Sc2cc(O)ccc2O[C@H]1c1ccc(OCCN2CCCCC2)cc1`: the IC50 is listed as 137 nM.

The target in another test is T2, Estrogen receptor. In words: […] inhibition of human ERalpha/ERbeta co-expressed in HEK 293 cells; 21/840. As to conditions: hek293. It is filed as functional.
In turn, `Oc1ccc2c(c1)S[C@H](C1CCCCCC1)[C@H](c1ccc(OCCN3CCCCC3)cc1)O2` gave an IC50 of 21 nM.

The target of the next test is T2, Estrogen receptor. In words: In vitro inhibition of human ERalpha/ERbeta expressed in HEK 293 cells; 76/322. As to conditions: hek293.
In turn, `CC(C)C[C@H]1Sc2cc(O)ccc2O[C@H]1c1ccc(OCCN2CCCCC2)cc1` displayed an IC50 of 76 nM.

In a further test the target is Estrogen receptor beta (Homo sapiens, UniProt Q92731). In words: Binding affinity towards human estrogen receptor beta (ERbeta).
Sequence of Estrogen receptor beta (Q92731 whole entry): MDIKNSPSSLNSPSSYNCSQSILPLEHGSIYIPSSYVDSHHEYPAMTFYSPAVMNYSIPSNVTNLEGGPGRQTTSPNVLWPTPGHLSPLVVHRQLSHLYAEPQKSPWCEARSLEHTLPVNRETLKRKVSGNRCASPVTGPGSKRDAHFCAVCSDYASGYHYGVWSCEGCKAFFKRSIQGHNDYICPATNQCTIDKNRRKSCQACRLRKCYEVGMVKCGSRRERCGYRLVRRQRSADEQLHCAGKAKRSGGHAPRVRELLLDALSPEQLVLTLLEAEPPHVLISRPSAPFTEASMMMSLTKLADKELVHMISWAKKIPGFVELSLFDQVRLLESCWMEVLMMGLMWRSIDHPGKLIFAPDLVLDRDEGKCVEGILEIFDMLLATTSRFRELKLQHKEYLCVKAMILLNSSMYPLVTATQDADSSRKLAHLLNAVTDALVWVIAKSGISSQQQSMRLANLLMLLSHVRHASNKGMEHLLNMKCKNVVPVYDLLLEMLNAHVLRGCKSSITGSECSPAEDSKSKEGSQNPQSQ
Conditions: not given
The compound `Oc1ccc2c(c1)S[C@H](C1CCCCC1)[C@H](c1ccc(OCCN3CCCCC3)cc1)O2` returned an IC50 of 16 nM.

As to `Oc1ccc2c(c1)S[C@H](c1cccnc1)[C@H](c1ccc(OCCN3CCCCC3)cc1)O2`, the IC50 worked out at 8250 nM.

For the compound `Oc1ccc(C[C@H]2Sc3cc(O)ccc3O[C@H]2c2ccc(OCCN3CCCCC3)cc2)cc1`, the IC50 worked out at 308 nM. This IC50 lies about 27-fold lower than the previous one.

`Oc1ccc2c(c1)S[C@H](CC1CCCCC1)[C@H](c1ccc(OCCN3CCCCC3)cc1)O2` came in with an IC50 of 40 nM.

In turn, `Oc1ccc2c(c1)S[C@H](Cc1ccccc1)[C@H](c1ccc(OCCN3CCCCC3)cc1)O2` gave a 50% inhibitory concentration (IC50) of 60 nM.

`Oc1ccc2c(c1)S[C@H](CC1CCCC1)[C@H](c1ccc(OCCN3CCCCC3)cc1)O2` displayed an IC50 of 34 nM.

`Oc1ccc2c(c1)S[C@H](c1ccncc1)[C@H](c1ccc(OCCN3CCCCC3)cc1)O2` showed an IC50 of 8200 nM. This IC50 is about 240-fold higher than that of the compound before.

Take `CC(C)(C)[C@H]1Sc2cc(O)ccc2O[C@H]1c1ccc(OCCN2CCCCC2)cc1`: the IC50 is 43 nM.

On to `Oc1ccc2c(c1)S[C@H](C1CCCCCC1)[C@H](c1ccc(OCCN3CCCCC3)cc1)O2`, for which the IC50 amounted to 28 nM.

In the case of `CC(C)[C@H]1Sc2cc(O)ccc2O[C@H]1c1ccc(OCCN2CCCCC2)cc1`, the IC50 came to 105 nM.

As for `Oc1ccc2c(c1)S[C@H](c1cccs1)[C@H](c1ccc(OCCN3CCCCC3)cc1)O2`, the IC50 is 162 nM.

`Oc1ccc2c(c1)S[C@H](c1ccco1)[C@H](c1ccc(OCCN3CCCCC3)cc1)O2` came in with an IC50 of 361 nM.

The compound `Oc1ccc2c(c1)S[C@H](C1CCCC1)[C@H](c1ccc(OCCN3CCCCC3)cc1)O2` registered an IC50 of 31 nM.

As for `CC(C)C[C@H]1Sc2cc(O)ccc2O[C@H]1c1ccc(OCCN2CCCCC2)cc1`, the IC50 came out at 38 nM.

As usually defined, the IC50 is the concentration that gives 50% inhibition. Read a low IC50 as greater potency in that assay.
